Results reported in patent US10208060B2, “Inhibitors of HIF prolyl hydroxylase” (Merck Sharp & Dohme Corp., priority 2014, dated 2019).

Molecular target: human HIF-PHD2 (Homo sapiens (Human), UniProt Q9GZT9)
Experiment: HIF-PHD2 inhibition assay (hydroxylation of HIF-1α peptide, time resolved fluorescence)
Assay type: biochemical
Details: FLAG-tagged full length PHD2; 0.2 μM 2-oxoglutarate, 0.5 μM HIF-1α peptide; 45 minutes at room temperature
Experimental: To each well of a 384-well plate, 1 μL of test compounds in DMSO (final concentration ranging from 0.3 nM to 10 uM) were added into 20 μl of assay buffer (50 mM Tris pH 7.4/0.01% Tween-20/0.1 mg/ml bovine serum albumin/10 μM ferrous sulfate/1 mM sodium ascorbate/20 μg/ml catalase) containing 0.15 μg/ml FLAG-tagged full length PHD2 expressed in and purified from baculovirus-infected Sf9 cells. […] Purif.

Sequence of human HIF-PHD2 (Q9GZT9 whole entry): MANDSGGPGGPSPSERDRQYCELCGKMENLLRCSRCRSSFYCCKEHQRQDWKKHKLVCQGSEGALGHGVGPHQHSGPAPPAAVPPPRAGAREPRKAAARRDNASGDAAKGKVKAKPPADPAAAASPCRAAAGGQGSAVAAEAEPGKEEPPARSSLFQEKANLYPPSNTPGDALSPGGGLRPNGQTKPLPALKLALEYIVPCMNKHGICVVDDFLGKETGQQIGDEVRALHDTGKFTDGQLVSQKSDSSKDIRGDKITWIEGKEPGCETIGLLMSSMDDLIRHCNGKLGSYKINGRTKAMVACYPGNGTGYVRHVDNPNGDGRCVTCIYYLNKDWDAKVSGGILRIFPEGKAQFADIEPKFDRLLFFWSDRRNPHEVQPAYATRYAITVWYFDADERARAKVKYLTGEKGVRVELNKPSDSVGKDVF

IC50 [nM]	SMILES
10	O=C(O)CNC(=O)c1c(O)c2c(n(-c3ccc(-c4ccc(OC(F)(F)F)cc4)cc3)c1=O)CSC2 [Example 12]
8.8	O=C(O)CNC(=O)c1c(O)c2c(n(-c3ccc(Br)cc3)c1=O)CSC2 [Example 11, 2-(1-(4-Bromophenyl)-4-hydroxy-2-oxo-1,2,5,7-tetrahydrothieno[3,4-b]pyridine-3-carboxamido)acetic acid]
